{"source": "patent US20220401374A1", "about": "“COMPOSITIONS AND METHODS FOR CANCER TREATMENT BY ENHANCING ANTITUMOR IMMUNITY USING TANNIC ACID-BASED NANOCAPSULES” (Purdue Research Foundation, priority 2019, published 2022)", "key": {"[1]": {"test_system": "splenocytes from C57BL/6 mice", "test": "Cytotoxicity of CFZ on splenocytes, bolus-pulse vs low-extended", "type": "cell-based", "details": "24 h total", "protocol": "To estimate whether the sustained supply of CFZ is beneficial to sparing immune cells in the tumor microenvironment, we tested the cytotoxic effect of CFZ on splenocytes in two treatment regimens (FIG. 3A): a pulse treatment of bolus dose (bolus-pulse) and an extended treatment of low dose (low-extended), where bolus-pulse indicates incubation of cells in different CFZ concentrations for 2.4 h followed by washout and incubation in drug-free medium for additional 21.6 h making the total incubation time of 24 h, and low-extended indicates incubating cells in 1/10th CFZ concentrations for 24 h. The bolus-pulse regimen represents unformulated CFZ that is immediately available to the tumor upon intratumoral injection but rapidly diffuses to the circulation, whereas the low-extended regimen mimics the sustained release of CFZ from CFZ-pTA-alb over a prolonged period of time. Splenocytes freshly harvested from C57BL/6 mice were used as a surrogate for immune cells, as the spleen is the largest secondary lymphoid organ containing 25% of total lymphocytes^34, where B cells and T cells constitute 45-50% and 30-35%, respectively^35.\nThe cytotoxicity of CFZ was also measured on splenocytes. […] Cell viability was measured as described above."}, "B16F10 cells": {"test_system": "B16F10 cells", "test": "Cytotoxicity by MTT assay in B16F10 cells", "type": "cell-based, murine", "details": "24 h total", "experimental": "Bolus-pulse: Cells were incubated with CFZ-DMSO at different CFZ concentrations for 2.4 h then washed and incubated in drug-free medium for additional 21.6 h making the total incubation time of 24 h. Low-extended: Cells were incubated with at 1/10th CFZ concentrations for 24 h. Cell viability was measured by the MTT assay at the end of 24 h. % cell viability was calculated by normalizing to the viability of control cells treated with the equivalent amount of vehicle for the same period of time.\nB16F10 (derived from murine melanoma; ATCC, Manassas, Va., USA) or HCC-1937 (derived from human triple negative breast cancer; ATCC, Manassas, Va., USA) were grown in RPMI 1640 or DMEM medium, respectively, supplemented with 10% FBS and penicillin (100 IU/mL) and streptomycin (100 μg/mL). Cells were seeded in a 96 well plate at a density of 4,000 cells per well. After 24 h incubation, the culture medium was replaced with fresh medium containing CFZ (as a stock solution in DMSO), CFZ-pTA or CFZ-pTA-alb. […] The stop/solubilizing solution was added to dissolve formazan crystals, and the absorbance was read at the wavelength of 562 nm by the SpectraMax M3 microplate reader."}, "plasma protein": {"test_system": "plasma protein", "details": "cited from earlier work"}, "BMDCs [2]": {"test_system": "BMDCs", "test": "BMDC activation after coculture with pretreated B16F10 cells (CD40, CD86)", "type": "cell-based, C57BL/6 mice", "details": "B16F10 pretreated 24 h, 200 nM CFZ-equivalent", "protocol": "Bone marrow cells were collected from healthy male C57BL/6 as reported previously^71. Mice at the age of 6-8 weeks were sacrificed using CO2 asphyxiation. Using a syringe, the cavities of femur bones were flushed with RPMI 1640 medium containing penicillin/streptomycin. The collected bone marrow was pipetted several times and passed through a 40 μm cell strainer to obtain single cell suspension. The cells were collected by centrifugation at 500 rcf for 8 min, treated with ACK buffer, rinsed, and suspended in IMDM medium supplemented with 10% FBS, penicillin/streptomycin, 20 ng/mL GM-CSF, and 10 mM β-mercaptoethanol at a density of 2×10^6 cells per 10 mL to differentiate into dendritic cells (DCs). Additional medium was supplemented three days later, and the floating and loosely adherent cells were collected by centrifugation on day 6. The DC phenotype was confirmed by CD11c staining. […] The stained cells were analyzed by flow cytometry (Accuri C6, BD Biosciences, San Jose, Calif., USA). Fluorescence-minus-one (FMO) controls were used for compensation and gating. The extent of phagocytosis was expressed as the percentage of DiI^+CD11c^+ cells per total CD11c^+ cells. The DC activation was assessed by CD11c^+CD40^+ or CD11c^+CD86^+ per total CD11c^+ cells."}, "BMDCs [3]": {"test_system": "BMDCs", "test": "Phagocytosis of pretreated DiI-labeled B16F10 cells by BMDCs", "type": "cell-based, C57BL/6 mice"}}}
{"compound": "CC(C)C[C@H](NC(=O)[C@H](CCc1ccccc1)NC(=O)CN1CCOCC1)C(=O)N[C@@H](Cc1ccccc1)C(=O)N[C@@H](CC(C)C)C(=O)[C@@]1(C)CO1", "note": "[CFZ, Carfilzomib]", "values": [{"measurement": "sensitivity to bolus-pulse vs low-extended regimen", "setting": "[1]", "result": "less sensitive to the low-extended regimen than to the bolus-pulse regimen"}, {"measurement": "sensitivity to bolus-pulse vs low-extended regimen", "setting": "B16F10 cells", "result": "equally sensitive to the two regimens"}, {"measurement": "plasma protein binding", "setting": "plasma protein", "result": "97.6-98.2%"}, {"measurement": "CD40 expression on CD11c+ BMDCs", "setting": "BMDCs [2]", "result": "increased the expression of the two activation markers"}, {"measurement": "CD86 expression on CD11c+ BMDCs", "setting": "BMDCs [2]", "result": "increased the expression of the two activation markers"}, {"measurement": "BMDC uptake of DiI+ B16F10 cells vs untreated B16F10 cells", "setting": "BMDCs [3]; 10 μM CFZ equivalent pretreatment 24 h, coculture 4 or 24 h", "result": "greater extents of DiI^+CD11c^+ cells per total CD11c^+ cells"}, {"measurement": "BMDC uptake of pretreated B16F10 cells at 4° C.", "setting": "BMDCs [3]; 4° C.", "result": "diminished"}, {"measurement": "BMDC uptake of DiI+ cells/fragments by confocal microscopy", "setting": "BMDCs [3]; Pearson's correlation coefficient of signal colocalization", "result": "increased"}]}
